Measured values reported in the METLIN SMRT retention time set (Domingo-Almenara et al. 2019).

assay: gradient 5% acetonitrile 3 min, to 50% in 2 min, to 85% in 15 min, held 3 min, 100 µL/min; conditions: column: Zorbax Extend-C18 2.1 x 50 mm; eluents: water / acetonitrile, 0.1% formic acid
How it was run: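 The mobile phases were water and acetonitrile, each with 0.1% formic acid, pumped at 100 μL/min through a Zorbax Extend-C18 column (2.1 × 50 mm, 1.8 μm). Pure standards were injected as mixtures of ~100 molecules and detected by a quadrupole time-of-flight mass spectrometer in positive and negative ionization mode. Retention time came from computationally picked adduct peaks, each inspected by hand.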

RP-LC retention time | Compound
1330 s | COc1ccc(-c2nc3n(n2)C2(CCCCC2)[C@@H]2CCCC[C@@H]2N3C(C)=O)cc1
666 s | CN1C(=O)[C@H]2CN(Cc3ccc(OC(F)(F)F)cc3)C[C@H]2C1=O
580 s | COc1ccccc1-c1cc2nc(C)cc(N3CCN(c4ccccn4)CC3)n2n1
678 s | O=C(NCCc1nc2cccnc2n1Cc1ccccc1)NCc1ccco1
775 s | O=S(=O)(c1ccc2c(c1)CCC2)N1CCCC(Cn2c(C3CC3)nc3cccnc32)C1 (configuration not stated)
724 s | COCCOc1ccc2c(n1)CCN(C(=O)NC1CCCC1)C2
854 s | CCOC(=O)C1CCCN(C(=O)c2csc3nc(-c4ccc(F)cc4)cn23)C1 (configuration not stated)
569 s | COc1ccccc1N1CCN(CCNC(=O)Nc2ccc3c(c2)OCO3)CC1
1180 s | Cc1nc2cc(-c3noc(-c4ccc(C(F)(F)F)cc4)n3)ccc2n(C)c1=O
717 s | O=S(=O)(c1ccc(-c2nnc(C3CC3)o2)o1)N1CCOCC1
820 s | O=C(CSc1ncnc2c1nnn2-c1cccc(Cl)c1)NCC1CCCO1 (configuration not stated)
709 s | Cc1ccnc(N2CCCC(C(=O)NC3CCCCC3)C2)n1 (configuration not stated)
831 s | CCCCc1c(C)n(CC(=O)NCC2CCCO2)c2nc(-c3ccccc3)nn2c1=O (configuration not stated)
1060 s | COc1ccc(-c2csc3c(=O)n(CCOc4ccccc4)cnc23)cc1
676 s | COc1ccc(CNC(=O)C2CCCN(c3cnc4nccnc4c3)C2)cc1 (configuration not stated)
624 s | Cc1ccc(-c2cc(C(=O)NCCN3CCN(C)CC3)n(C)c2)cc1
599 s | CC(C)(C)NC(=O)N1CCC(CNC(=O)C2CCN(S(C)(=O)=O)CC2)CC1
642 s | CCOC(=O)c1ccc(NC(=O)CC2Sc3ncnn3C2=O)cc1 (configuration not stated)
598 s | O=C(NC1CC1)C1CCN(c2nc3ccc(-c4cccnc4)nc3s2)CC1
740 s | CC1CCN(c2cncnc2-n2cc(NC(=O)Cc3cccs3)cn2)CC1
1050 s | COc1ccc(OCC(=O)Nc2nc(-c3ccccc3)cs2)cc1
677 s | CCOc1cc(CNc2ccc3[nH]c(=O)[nH]c3c2)cc(Br)c1OC

RP-LC retention time | Compound
854 s | COc1cccc(-n2cc(C(=O)OCc3ccccn3)c3ccccc3c2=O)c1
865 s | CCCn1cc(CCNC(=O)Nc2cccc(Br)c2)c2cccnc21
590 s | CN(C)CCNC(=O)c1ccc(CS(=O)c2ccc(Br)cc2)o1 (configuration not stated)
563 s | O=C(NCc1cccnc1)c1ccc2ccnc(N3CCN(C(=O)c4ccco4)CC3)c2c1
914 s | O=C(CN1C(=O)C2CCCCN2c2ccc(C(=O)N3CCCC3)cc21)NCCC1=CCCCC1 (configuration not stated)
602 s | CCC(=O)N1CCN(Cc2nc3cc(NC(=O)c4cccs4)ccc3n2C)CC1
636 s | CCOC(=O)c1ccc(N2C(=O)CC(NCCCN3CCN(CC)CC3)C2=O)cc1 (configuration not stated)
1050 s | CC1CCN(c2cc(-n3cnc(C(=O)N(C)Cc4ccccc4)c3)ncn2)CC1
604 s | NC(=O)c1cc(C(N)=O)nc(Cl)n1
709 s | O=C(c1cccc(Cl)c1)N1C[C@@H]2C[C@H]1C[C@@H]2NS(=O)(=O)c1cccnc1
669 s | CCNc1cc(N2CCC(CCC(=O)NCc3ccc(F)cc3F)CC2)ncn1
676 s | CCNC(=O)C1CCCN(c2nc3ncn(CC(=O)Nc4cccc(F)c4)c(=O)c3s2)C1 (configuration not stated)
842 s | O=C(C1CCCO1)N1CCC(CCOc2cccc(F)c2)CC1 (configuration not stated)
692 s | CCCNC(=O)C1CCN(c2cc(SCC(=O)Nc3ccc(OC)cc3)ncn2)CC1
634 s | Cc1nn2c(CNC(=O)c3ccc(F)c(F)c3)c(C)nc2s1
766 s | COc1ccc(S(=O)(=O)NC2CCN(C(=O)Cc3c[nH]c4ccccc34)CC2)cc1
617 s | O=C(CSc1ccc(N2CCCC(C(=O)NC3CC3)C2)nn1)Nc1ccc(F)cc1F (configuration not stated)
963 s | CCC1Oc2ccc(S(=O)(=O)N3CCC(C(=O)NCc4ccc(C)cc4)CC3)cc2NC1=O (configuration not stated)
827 s | COC(=O)C(C)NC(=O)NCc1cccn1Cc1cccc(C)c1 (configuration not stated)
842 s | CCc1noc(NC(C)=O)c1-c1ccc(OC)c(S(=O)(=O)Nc2ccc(Cl)cc2F)c1
911 s | CSc1ccc(Cl)c(C(=O)Nc2cccn3c(C4CCC4)nnc23)c1
1010 s | CC(C)Cc1cc(-c2nn3c(Cc4ccc(Cl)cc4)nnc3s2)n[nH]1

RP-LC retention time | Compound
756 s | O=C(NC1CCN(c2cc(-c3ccccc3)[nH]n2)C1)c1ccccc1F (configuration not stated)
869 s | CCC(C)NC(=O)N(C)CCc1noc(COc2ccc(Cl)cc2)n1 (configuration not stated)
584 s | COc1cc(NC(=O)N2CCN(C)c3ncccc32)cc(OC)c1OC
764 s | CCc1noc(NC(C)=O)c1-c1ccc(OC)c(S(=O)(=O)Nc2ccccc2)c1
779 s | COCCN1CC2(CCN(S(=O)(=O)c3ccc(Cl)cc3C)CC2)C1c1ccccc1 (configuration not stated)
661 s | COc1ccc(C)cc1S(=O)(=O)Nc1ccc(-c2cn3ccc(C)nc3n2)cc1
761 s | Cc1cccc(NC(=O)NCCn2c(C(F)(F)F)nc3cccnc32)c1
828 s | Cc1cccc(-c2nnc(CC(=O)NCCC(C)C)o2)c1
831 s | COC(=O)c1c(NCc2cccc(Br)c2)c2cc(F)ccc2[nH]c1=O
777 s | O=C(NCc1nc(-c2ccc(N3CCCCC3)cc2)no1)c1ccco1
793 s | Cc1ccc(CNC(=O)c2cn(-c3ccc(NC(=O)C(C)C)cn3)cn2)cc1
949 s | C[C@H](NC(=O)Cc1cc(F)cc(F)c1)C(=O)N[C@@H]1C(=O)N(C)c2ccccc2-c2ccccc21
825 s | CC1(C)COc2ccc(NC(=O)COc3ccccc3F)cc2NC1=O
716 s | COc1ccc(Cc2nc(-c3ccc4c(c3)ncn4CCC(=O)N3CCCC3)no2)cc1
694 s | COCCN1CCn2cc(S(=O)(=O)Nc3ccc(F)cc3F)cc2C1=O
986 s | CC(C)c1cc(C(=O)NCc2ccc3c(c2)OCO3)nc2cc(-c3ccccn3)nn12
657 s | CCCNC(=O)CC1CCN(C(=O)c2[nH]c(C)c(C(=O)OC)c2C)CC1
806 s | COCCCNC(=O)c1ccc(OCc2nnc(C(=O)Nc3ccccc3F)s2)cc1
558 s | Cn1c(N2CCCC(C(=O)NCc3cccnc3)C2)cc(=O)n(C)c1=O (configuration not stated)
650 s | O=S(=O)(c1cccnc1)N1CCCC(Cn2c(C3CC3)nc3cccnc32)C1 (configuration not stated)
633 s | COc1ccc2nc3oc(C(=O)NCCN4CCCCC4C)cc3cc2c1 (configuration not stated)

Compound | RP-LC retention time
COc1cc(OC)cc(C2(C#N)CCN(C)CC2)c1 | 665 s
O=C(O)CN1C(=O)CN=C(c2ccccn2)c2cc(Cl)ccc21 | 696 s
